According to ChEMBL document CHEMBL1133517, “Design, radiosynthesis, and biodistribution of a new potent and selective ligand for in vivo imaging of the adenosine A(2A) receptor system using positron emission tomography” (J Med Chem, 2000):

Experiments:
[1] = species on record: Rattus norvegicus; experiment: Biodistribution in rat plasma after 90 min time interval; format: ADME, organism-based; conditions: in vivo, 1.5 h
[2] = species on record: Rattus norvegicus; experiment: Biodistribution in rat pituitary after 5 min time interval; format: ADME, organism-based, Pituitary gland; conditions: in vivo
[3] = species on record: Rattus norvegicus; experiment: Biodistribution in rat lung after 30 min time interval; format: ADME, organism-based; conditions: in vivo, 0.5 h
[4] = species on record: Rattus norvegicus; experiment: Biodistribution in rat lung after 60 min time interval; format: ADME, organism-based; conditions: in vivo, 1 h
[5] = species on record: Rattus norvegicus; experiment: Biodistribution in rat hypothalamus after 30 min time interval; format: ADME, organism-based; conditions: in vivo, 0.5 h
[6] = species on record: Rattus norvegicus; experiment: Biodistribution in rat adrenal after 60 min time interval; format: ADME, organism-based; conditions: in vivo, 1 h
[7] = species on record: Rattus norvegicus; experiment: Biodistribution in rat post-CTX after 5 min time interval; format: ADME, organism-based; conditions: in vivo
[8] = species on record: Rattus norvegicus; experiment: Biodistribution in rat trachea after 90 min time interval; format: ADME, organism-based; conditions: in vivo, 1.5 h
[9] = species on record: Rattus norvegicus; experiment: Biodistribution in rat lung after 5 min time interval; format: ADME, organism-based; conditions: in vivo
[10] = species on record: Rattus norvegicus; experiment: Biodistribution in rat testes after 30 min time interval; format: ADME, organism-based, Testis; conditions: in vivo, 0.5 h
[11] = species on record: Rattus norvegicus; experiment: Biodistribution in rat post-CTX after 30 min time interval; format: ADME, organism-based; conditions: in vivo, 0.5 h
[12] = species on record: Rattus norvegicus; experiment: Biodistribution in rat liver after 15 min time interval; format: ADME, organism-based; conditions: in vivo, 0.25 h
[13] = species on record: Rattus norvegicus; experiment: Biodistribution in rat thalamus after 90 min time interval; format: ADME, organism-based; conditions: in vivo, 1.5 h
[14] = species on record: Rattus norvegicus; experiment: Biodistribution in rat hippocampus after 60 min time interval; format: ADME, organism-based; conditions: in vivo, 1 h
[15] = species on record: Rattus norvegicus; experiment: Biodistribution in rat spleen after 5 min time interval; format: ADME, organism-based; conditions: in vivo
[16] = species on record: Rattus norvegicus; experiment: Biodistribution in rat anti-CTX after 90 min time interval; format: ADME, organism-based; conditions: in vivo, 1.5 h
[17] = species on record: Rattus norvegicus; experiment: Biodistribution in rat pons after 5 min time interval; format: ADME, organism-based; conditions: in vivo
[18] = species on record: Rattus norvegicus; experiment: Biodistribution in rat cerebellem after 5 min time interval; format: ADME, organism-based, Cerebellum; conditions: in vivo
[19] = species on record: Rattus norvegicus; experiment: Biodistribution in rat trachea after 5 min time interval; format: ADME, organism-based; conditions: in vivo
[20] = species on record: Rattus norvegicus; experiment: Biodistribution in rat trachea after 15 min time interval; format: ADME, organism-based; conditions: in vivo, 0.25 h
[21] = species on record: Rattus norvegicus; experiment: Biodistribution in rat heart after 5 min time interval; format: ADME, organism-based; conditions: in vivo
[22] = species on record: Rattus norvegicus; experiment: Biodistribution in rat hypothalamus after 60 min time interval; format: ADME, organism-based; conditions: in vivo, 1 h
[23] = species on record: Rattus norvegicus; experiment: Biodistribution in rat intestine after 15 min time interval; format: ADME, organism-based; conditions: in vivo, 0.25 h
[24] = species on record: Rattus norvegicus; experiment: Biodistribution in rat spleen after 15 min time interval; format: ADME, organism-based; conditions: in vivo, 0.25 h
[25] = species on record: Rattus norvegicus; experiment: Biodistribution in rat anti-CTX after 15 min time interval; format: ADME, organism-based; conditions: in vivo, 0.25 h
[26] = species on record: Rattus norvegicus; experiment: Biodistribution in rat thalamus after 30 min time interval; format: ADME, organism-based; conditions: in vivo, 0.5 h
[27] = species on record: Rattus norvegicus; experiment: Biodistribution in rat thalamus after 5 min time interval; format: ADME, organism-based; conditions: in vivo
[28] = species on record: Rattus norvegicus; experiment: Biodistribution in rat cerebellem after 90 min time interval; format: ADME, organism-based, Cerebellum; conditions: in vivo, 1.5 h
[29] = species on record: Rattus norvegicus; experiment: Biodistribution in rat striatum after 60 min time interval; format: ADME, organism-based; conditions: in vivo, 1 h
[30] = species on record: Rattus norvegicus; experiment: Biodistribution in rat anti-CTX after 60 min time interval; format: ADME, organism-based; conditions: in vivo, 1 h
[31] = species on record: Rattus norvegicus; experiment: Biodistribution in rat striatum after 90 min time interval; format: ADME, organism-based; conditions: in vivo, 1.5 h
[32] = species on record: Rattus norvegicus; experiment: Biodistribution in rat pons after 90 min time interval; format: ADME, organism-based; conditions: in vivo, 1.5 h
[33] = species on record: Rattus norvegicus; experiment: Biodistribution in rat lung after 90 min time interval; format: ADME, organism-based; conditions: in vivo, 1.5 h
[34] = species on record: Rattus norvegicus; experiment: Biodistribution in rat striatum after 5 min time interval; format: ADME, organism-based; conditions: in vivo
[35] = species on record: Rattus norvegicus; experiment: Biodistribution in rat kidney after 15 min time interval; format: ADME, organism-based; conditions: in vivo, 0.25 h
[36] = species on record: Rattus norvegicus; experiment: Biodistribution in rat intestine after 90 min time interval; format: ADME, organism-based; conditions: in vivo, 1.5 h
[37] = species on record: Rattus norvegicus; experiment: Biodistribution in rat plasma after 15 min time interval; format: ADME, organism-based; conditions: in vivo, 0.25 h
[38] = species on record: Rattus norvegicus; experiment: Biodistribution in rat kidney after 60 min time interval; format: ADME, organism-based; conditions: in vivo, 1 h
[39] = species on record: Rattus norvegicus; experiment: Biodistribution in rat anti-CTX after 5 min time interval; format: ADME, organism-based; conditions: in vivo
[40] = species on record: Rattus norvegicus; experiment: Biodistribution in rat trachea after 60 min time interval; format: ADME, organism-based; conditions: in vivo, 1 h
[41] = species on record: Rattus norvegicus; experiment: Biodistribution in rat post-CTX after 90 min time interval; format: ADME, organism-based; conditions: in vivo, 1.5 h
[42] = species on record: Rattus norvegicus; experiment: Biodistribution in rat cerebellem after 30 min time interval; format: ADME, organism-based, Cerebellum; conditions: in vivo, 0.5 h
[43] = species on record: Rattus norvegicus; experiment: Biodistribution in rat plasma after 60 min time interval; format: ADME, organism-based; conditions: in vivo, 1 h
[44] = species on record: Rattus norvegicus; experiment: Biodistribution in rat muscle after 5 min time interval; format: ADME, organism-based, Muscle tissue; conditions: in vivo
[45] = species on record: Rattus norvegicus; experiment: Biodistribution in rat post-CTX after 60 min time interval; format: ADME, organism-based; conditions: in vivo, 1 h
[46] = species on record: Rattus norvegicus; experiment: Biodistribution in rat hippocampus after 5 min time interval; format: ADME, organism-based; conditions: in vivo
[47] = species on record: Rattus norvegicus; experiment: Biodistribution in rat adrenal after 30 min time interval; format: ADME, organism-based; conditions: in vivo, 0.5 h
[48] = species on record: Rattus norvegicus; experiment: Biodistribution in rat thalamus after 15 min time interval; format: ADME, organism-based; conditions: in vivo, 0.25 h
[49] = species on record: Rattus norvegicus; experiment: Biodistribution in rat testes after 15 min time interval; format: ADME, organism-based, Testis; conditions: in vivo, 0.25 h
[50] = species on record: Rattus norvegicus; experiment: Biodistribution in rat pons after 30 min time interval; format: ADME, organism-based; conditions: in vivo, 0.5 h

- ID/g [1]: 0.07%
- ID/g [2]: 0.18%
- ID/g [3]: 0.2%
- ID/g [4]: 0.37%
- ID/g [5]: 0.04%
- ID/g [6]: 0.13%
- ID/g [7]: 0.19%
- ID/g [8]: 0.03%
- ID/g [9]: 0.38%
- ID/g [10]: 0.23%
- ID/g [11]: 0.05%
- ID/g [12]: 0.74%
- ID/g [13]: 0.02%
- ID/g [14]: 0.02%
- ID/g [15]: 0.18%
- ID/g [16]: 0.02%
- ID/g [17]: 0.2%
- ID/g [18]: 0.19%
- ID/g [19]: 0.17%
- ID/g [20]: 0.12%
- ID/g [21]: 0.26%
- ID/g [22]: 0.02%
- ID/g [23]: 0.28%
- ID/g [24]: 0.12%
- ID/g [25]: 0.12%
- ID/g [26]: 0.05%
- ID/g [27]: 0.2%
- ID/g [28]: 0.02%
- ID/g [29]: 0.06%
- ID/g [30]: 0.02%
- ID/g [31]: 0.04%
- ID/g [32]: 0.02%
- ID/g [33]: 0.23%
- ID/g [34]: 0.43%
- ID/g [35]: 0.49%
- ID/g [36]: 0.16%
- ID/g [37]: 0.13%
- ID/g [38]: 0.13%
- ID/g [39]: 0.18%
- ID/g [40]: 0.04%
- ID/g [41]: 0.02%
- ID/g [42]: 0.05%
- ID/g [43]: 0.07%
- ID/g [44]: 0.15%
- ID/g [45]: 0.02%
- ID/g [46]: 0.17%
- ID/g [47]: 0.25%
- ID/g [48]: 0.1%
- ID/g [49]: 0.13%
- ID/g [50]: 0.06%
SMILES: [11CH3]Oc1ccc(CCCn2ncc3c2nc(N)n2nc(-c4ccco4)nc32)cc1
